Source: article PMC4922569, “Antifibrotic Effects of the Dual CCR2/CCR5 Antagonist Cenicriviroc in Animal Models of Liver and Kidney Fibrosis” (PLoS ONE, 2016)
Where a name gives a salt, the structure may show the parent alone.

Experiments:
[1] = design: method as in PMID 21317794, PMID 21486960, PMID 16251299; details: in humans; cited from earlier work
CCR5 = details: cited from earlier work
[2] = system: TAA-induced liver fibrosis; test: Rat model of thioacetamide (TAA)-induced liver fibrosis; type: in vivo; details: for Reduction in liver collagen deposition vs vehicle control: picrosirius red; for Reduction in protein expression of alpha-SMA vs vehicle control / Reduction in protein expression of collagen type 1 vs vehicle control: western blot, not statistically significant
Experimental: The TAA model is commonly used for the evaluation of treatment at various stages of disease, from inflammation to cirrhosis. The protocol was approved by the Mount Sinai IACUC (approval number: LA12-00318) and animals were maintained according to the NIH guidelines. Anesthesia was performed with 1–5% isoflurane through inhalation; surgery was terminal.
Using male Sprague-Dawley rats (n = 72, 10–12 weeks of age; Harlan Laboratories, USA), fibrosis was induced by IP administration of TAA at a dose of 150 mg/kg three times per week for 8 weeks. Rats (n = 4–8/group) received vehicle control, CVC 30 mg/kg/day (CVC30) or CVC100 QD PO during Weeks 0–8 (early intervention), Weeks 4–8 (established fibrosis) or Weeks 8–12 (cirrhosis reversal) and were sacrificed at Weeks 8, 8 or 12, respectively (S1 Table). Study endpoints included: body and liver weights, liver biochemistry (e.g. serum alanine and aspartate aminotransferase [ALT/AST]), extracellular matrix protein expression in liver tissue (collagen type 1 and alpha-SMA), mRNA expression (collagen type 1, alpha-SMA, beta-platelet-derived growth factor-beta receptor, TGF beta-receptor, matrix metalloproteinase 2, tissue inhibitor of metalloproteinases 1 [TIMP1] and 2 [TIMP2]) and liver morphology. For liver-function testing, plasma samples were obtained from blood collected from the vena cava. Livers were sectioned and fixed in 3.7% formalin, embedded in paraffin, cut at […] thickness and stained with hematoxylin and eosin (H&E) for histological examination.
In the TAA model, serum ALT/AST levels were measured using VITROS® 5,1 FS (Ortho Clinical Diagnostics, USA), with plasma diluted with VITROS® 7% bovine serum albumin if needed. In the NASH model, plasma ALT levels were measured by FUJI DRI-CHEM 7000 (Fujifilm, Japan) and plasma CCL2 concentration quantified by the mouse CCL2/JE/MCP-1 immunoassay kit (R&D, USA).
Collagen deposition (the extent of fibrosis) was visualized in liver/kidney sections with picrosirius red staining. In the TAA model, collagen quantification was performed using computerized Life Science morphometry system (BIOQUANT, USA) on a total of 36 images per animal at 100x magnification (four picrosirius red-stained slides per animal, with nine images taken randomly per slide).
In the TAA model, total protein was extracted from liver cells and expression levels of collagen type 1 and alpha-SMA were assessed by western blotting. Protein expression levels were normalized to the reference protein (glyceraldehyde-3-phosphate dehydrogenase [GAPDH] or calnexin).
In the hepatic-fibrosis models, RNA was extracted from liver tissues and purified, and 1 μg of total mRNA was reverse-transcribed into complementary DNA. Expression levels were determined by quantitative polymerase chain reaction (PCR) (iQ™ SYBR® Green Supermix [Bio-Rad Laboratories, USA] on the LightCycler® 480 Real-Time PCR System [Roche, Switzerland]) in the TAA model at Week 8 (early intervention and established fibrosis) and Week 12 (cirrhosis reversal), and by real-time PCR (PCR Dice® and SYBR® Premix Ex Taq™ [Takara Bio Inc., Japan]) at Week 9 in the NASH model.
Relative mRNA expression levels were normalized to the following reference genes: TAA model, GAPDH; NASH model, 36B4 (gene symbol: Rplp0); UUO model, hypoxanthine phosphoribosyltransferase.
Data are presented as ±standard error of the mean (SEM) in the TAA model. Statistical significance was determined by the two-tailed Student’s t test.

[3] = Body and liver weights, NASH model; type: in vivo, mouse; details: mean±SD
Experimental: NASH was induced in male C57BL/6 mice (Charles River Laboratories, Japan) via subcutaneous injection of 200 μg of streptozotocin 2 days post-birth (causing mild islet inflammation and islet destruction) plus a high-fat diet (57 kcal% fat) from 4 weeks of age (sequentially causing fatty changes to the liver, NASH and fibrosis). From Weeks 6 to 9, three groups (n = 9/group) received vehicle control, CVC20 or CVC100 BID PO (S1 Table). At Week 9, six animals per group were sacrificed for assessment of liver fibrosis and Non-Alcoholic Fatty Liver Disease (NAFLD) Activity Score (NAS). The animals were sacrificed by exsanguination through direct cardiac puncture under ether anesthesia. Study endpoints included: body and liver weights, plasma biochemistry (e.g. ALT and CCL2), extracellular matrix protein in liver tissue (hydroxyproline content), mRNA expression (collagen type 1, tumor necrosis factor-alpha, MCP-1, TIMP1) and histopathological analyses. Blood samples were collected and plasma samples derived for biochemistry assessments. Sections were cut from paraffin blocks of liver tissue, prefixed in Bouin’s solution and stained with H&E for histological examination.
Body weight (measured before and during treatment) and sacrificed animal body and liver/kidney/spleen weights were recorded.

For CCCCOCCOc1ccc(-c2ccc3c(c2)/C=C(/C(=O)Nc2ccc([S@@+]([O-])Cc4cncn4CCC)cc2)CCCN3CC(C)C)cc1 [CVC, cenicriviroc mesylate], the Plasma half-life [1] is listed as 30 to 40 h, the “Occupancy for CCR5 (spleen) in proinflammatory monocytes” value (CCR5; CVC 250 nM, murine cryopreserved PBMC ex vivo) is listed as 87% and the CCR5 occupancy (CCR5; CVC concentrations of 250 nmol/L or higher, mouse monocytes and macrophages ex vivo) is listed as over 87%. For the same compound, the “mRNA expression of the fibrosis markers assessed, CVC vs vehicle control” value ([2]; TAA model) was “no significant changes”, the “ALT levels, CVC-treated vs vehicle-control groups” value ([2]; TAA model, all groups) was “no significant differences” and the “Reductions in collagen type 1 and alpha-SMA protein expression” value ([2]; advanced disease cirrhosis group) was “No reductions”. The “Histologic differences between groups, H&E-stained liver sections” value ([2]; all TAA groups) was “No histologic differences”, the “Reduction in collagen deposition” value ([2]; cirrhosis-reversal group, CVC treatment started at Week 8 (Weeks 8-12)) was “No significant reduction” and the “Reduction in liver collagen deposition vs vehicle control” value (from here on “Reduction in liver collagen deposition”) ([2]; early intervention (Weeks 0-8), CVC30 QD PO) was 48.5%. The “Reduction in liver collagen deposition” value ([2]; early intervention (Weeks 0-8), CVC100 QD PO) was 37.5%, the “AST levels vs vehicle control” value ([2]; early intervention group, CVC30, p < 0.05) was “significantly decreased” and the “Reduction in protein expression of alpha-SMA vs vehicle control” value (“Reduction … of alpha-SMA vs vehicle control” for short) ([2]; early intervention, CVC30) was 17%. For the same compound, the “Reduction in protein expression of collagen type 1 vs vehicle control” value ([2]; early intervention, CVC30) was 29%, the “Reduction … of alpha-SMA vs vehicle control” value ([2]; early intervention, CVC100) was 22% and the “Reduction in protein expression of collagen type 1 vs vehicle control” value ([2]; early intervention, CVC100) was 12%. For the same compound, the “Reduction in liver collagen deposition” value ([2]; established fibrosis (Weeks 4-8), CVC30 QD PO) was 35.7%, the “Significant antifibrotic effect (collagen deposition) observed” value ([2]; established fibrosis (Weeks 4-8), CVC100 QD PO) was “not” and the “Reduction … of alpha-SMA vs vehicle control” value ([2]; established fibrosis, CVC30) was 14%. For the same compound, the “Reduction in protein expression of collagen type 1 vs vehicle control” value ([2]; established fibrosis, CVC30) was 30%, the Final body weight ([3]; CVC 20 mg/kg/day) was 19.5 ± 2.0 g and the Liver weight ([3]; CVC 20 mg/kg/day) was 1334 ± 99 mg. The Liver-to-body weight ratio ([3]; CVC 20 mg/kg/day) was 6.9±1.0%, the Final body weight ([3]; CVC 100 mg/kg/day) was 18.7 ± 0.9 g and the Liver weight ([3]; CVC 100 mg/kg/day) was 1307 ± 119 mg. It also gave a Liver-to-body weight ratio ([3]; CVC 100 mg/kg/day) of 7.0±0.8%.
